The record followed here is patent US20240093151A1, “DEVICE AND METHOD FOR OBTAINING IMMUNO-STIMULATORY ANTIGEN-PRESENTING CELLS” (Transimmune AG, priority 2015, published 2024).

This test concerns platelets. The test can be described thus: Activation of platelets by plasma protein fragment. Type of test: cell-based.

Ends that are not written are not given here.

Regarding HHLGGAKQAGDV, the “ability to activate platelets” value was “able to activate platelets”.
